Results on three compounds are retold here after PMC5564600 (Oncotarget, 2017).

The term IC50 denotes the concentration that gives 50% inhibition. Low values mean higher potency, high ones lower potency.

In assay [1] the target is panel of 442 kinases (Homo sapiens, UniProt P42336, C420R). As to the kind of experiment: biochemical. Type of assay: binding. To be noted: kinase PIK3CA(C420R); 1 µM; read-out: % of control at 1 µM.
Assay [2] concerns the target panel of 442 kinases (Homo sapiens, UniProt P42336). Nature of the assay: biochemical. In kind it is binding. To be noted: kinase PIK3CA; 1 µM; read-out: % of control at 1 µM.
The target in assay [3] is panel of 442 kinases (Homo sapiens, UniProt P42336, M1043I). Nature of the assay: biochemical. Type of assay: binding. As to conditions: kinase PIK3CA(M1043I); 1 µM; read-out: % of control at 1 µM.
Assay [4] addresses panel of 442 kinases (Homo sapiens, UniProt P42336, Q546K). As to the kind of experiment: biochemical. Type of assay: binding. To be noted: kinase PIK3CA(Q546K); 1 µM; read-out: % of control at 1 µM.
The target in assay [5] is panel of 442 kinases (Homo sapiens, UniProt P42336, E545K). Nature of the assay: biochemical. In kind it is binding. As to conditions: kinase PIK3CA(E545K); 1 µM; read-out: % of control at 1 µM.
The next assay addresses PI3Kγ (Homo sapiens, UniProt P48736). Nature of the assay: PI3K (human) HTRF assay, PI3Kγ. In kind it is biochemical. To be noted: ATP 10 μM, mean ± SEM. For orientation: In TR-FRET formats the signal depends on donor and acceptor labels being close together.
The target of assay [6] is panel of 442 kinases (Homo sapiens, UniProt Q16584). Nature of the assay: biochemical. In kind it is binding. As to conditions: kinase MLK3; 1 µM; read-out: % of control at 1 µM.
Another assay deals with mTOR (Homo sapiens, UniProt P42345). Nature of the assay: SelectScreen Z'LYTE kinase assay (Invitrogen), mTOR. Type of assay: biochemical. To be noted: determined by Invitrogen, mean ± SEM, n=2.

As for `COc1ncc(-c2ccc3nccc(-c4ccnnc4)c3c2)cc1NS(=O)(=O)c1ccc(F)cc1F` [Omipalisib], the remaining activity at 1 µM on panel of 442 kinases [1] amounted to 0%; on panel of 442 kinases [2] it was 0%; on panel of 442 kinases [3], 0%; at panel of 442 kinases [4], 0.1%; at panel of 442 kinases [5], 0.1%. In addition, on PI3Kγ, the IC50 came out at 1.2 ± 0.2 nM.

Consider `Cn1c(=O)n(-c2ccc(C(C)(C)C#N)cc2)c2c3cc(-c4cnc5ccccc5c4)ccc3ncc21` [Dactolisib, 2-methyl-2-[4-(3-methyl-2-oxo-8-quinolin-3-yl-2,3-dihydroimidazo[4,5-c]quinolin-1-yl)-phenyl] propionitrile], for which the remaining activity at 1 µM at panel of 442 kinases [1] stood at 8.1%; at panel of 442 kinases [3] it was 1.4%; on panel of 442 kinases [5], 5.5%.

In the case of `FC(F)c1nc2ccccc2n1-c1nc(N2CCOCC2)nc(N2CCOCC2)n1` [ZSTK474, 2-(difluoromethyl)-1-[4,6-di(4-morpholinyl)-1,3,5-triazin-2-yl]-1H-benzimidazole], the remaining activity at 1 µM on panel of 442 kinases [6] stood at 56%. The 50% inhibitory concentration (IC50) against mTOR was 102 ± 19 nM.
